The source made the active and inactive calls. Cut-off read from the data, not from the text of the source, for most assays here: actives have a measured Kd and inactives only a lower limit.
These compounds were tested against DnaJ homolog subfamily A member 1 (Homo sapiens, UniProt P31689).
Note: in the data inactive means no Kd found up to 30 µM.

DnaJ homolog subfamily A member 1, sequence (P31689 whole entry): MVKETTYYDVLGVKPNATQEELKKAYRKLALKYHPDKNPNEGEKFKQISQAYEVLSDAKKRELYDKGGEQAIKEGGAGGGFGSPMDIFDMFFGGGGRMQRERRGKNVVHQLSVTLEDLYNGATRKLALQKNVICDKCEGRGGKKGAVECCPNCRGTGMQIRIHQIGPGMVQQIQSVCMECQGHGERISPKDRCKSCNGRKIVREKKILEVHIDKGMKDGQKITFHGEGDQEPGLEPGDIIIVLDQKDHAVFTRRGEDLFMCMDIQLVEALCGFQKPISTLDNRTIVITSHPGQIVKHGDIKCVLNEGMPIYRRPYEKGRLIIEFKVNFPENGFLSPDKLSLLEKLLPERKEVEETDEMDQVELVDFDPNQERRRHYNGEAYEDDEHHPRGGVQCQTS

SMILES	Kd
CNC(=O)c1ccc(C)c(-n2c(C)cc(OCc3ccc(F)cc3F)c(Br)c2=O)c1 [PH-797804]	> 30 µM (inactive)
CNC(=O)c1cc(Oc2ccc(NC(=O)Nc3ccc(Cl)c(C(F)(F)F)c3)c(F)c2)ccn1 [REGORAFENIB]	> 30 µM (inactive)
CN(C)C(=O)c1cc2cnc(Nc3ccc(N4CCNCC4)cn3)nc2n1C1CCCC1 [RIBOCICLIB]	> 30 µM (inactive)
COc1cc(OC)c(/C=C/S(=O)(=O)Cc2ccc(OC)c(NCC(=O)O)c2)c(OC)c1 [RIGOSERTIB]	> 30 µM (inactive)
CNC(=O)CN1CCC(Oc2cc3c(Nc4cccc(Cl)c4F)ncnc3cc2OC)CC1 [SAPITINIB]	> 30 µM (inactive)
CN1CCC(CNc2ccc3ncc(-c4cccc(OC(F)(F)F)c4)n3n2)CC1 [SGI-1776]	> 30 µM (inactive)
C[C@@H]1CN(Cc2ccc(F)cc2)[C@@H](C)CN1C(=O)c1cc2c(C(=O)C(=O)N(C)C)cn(C)c2cc1Cl [TALMAPIMOD]	> 30 µM (inactive)

The compounds below were run against Cyclin-dependent kinase 12 (Homo sapiens, UniProt Q9NYV4).
Cyclin-dependent kinase 12, sequence (Q9NYV4 whole entry): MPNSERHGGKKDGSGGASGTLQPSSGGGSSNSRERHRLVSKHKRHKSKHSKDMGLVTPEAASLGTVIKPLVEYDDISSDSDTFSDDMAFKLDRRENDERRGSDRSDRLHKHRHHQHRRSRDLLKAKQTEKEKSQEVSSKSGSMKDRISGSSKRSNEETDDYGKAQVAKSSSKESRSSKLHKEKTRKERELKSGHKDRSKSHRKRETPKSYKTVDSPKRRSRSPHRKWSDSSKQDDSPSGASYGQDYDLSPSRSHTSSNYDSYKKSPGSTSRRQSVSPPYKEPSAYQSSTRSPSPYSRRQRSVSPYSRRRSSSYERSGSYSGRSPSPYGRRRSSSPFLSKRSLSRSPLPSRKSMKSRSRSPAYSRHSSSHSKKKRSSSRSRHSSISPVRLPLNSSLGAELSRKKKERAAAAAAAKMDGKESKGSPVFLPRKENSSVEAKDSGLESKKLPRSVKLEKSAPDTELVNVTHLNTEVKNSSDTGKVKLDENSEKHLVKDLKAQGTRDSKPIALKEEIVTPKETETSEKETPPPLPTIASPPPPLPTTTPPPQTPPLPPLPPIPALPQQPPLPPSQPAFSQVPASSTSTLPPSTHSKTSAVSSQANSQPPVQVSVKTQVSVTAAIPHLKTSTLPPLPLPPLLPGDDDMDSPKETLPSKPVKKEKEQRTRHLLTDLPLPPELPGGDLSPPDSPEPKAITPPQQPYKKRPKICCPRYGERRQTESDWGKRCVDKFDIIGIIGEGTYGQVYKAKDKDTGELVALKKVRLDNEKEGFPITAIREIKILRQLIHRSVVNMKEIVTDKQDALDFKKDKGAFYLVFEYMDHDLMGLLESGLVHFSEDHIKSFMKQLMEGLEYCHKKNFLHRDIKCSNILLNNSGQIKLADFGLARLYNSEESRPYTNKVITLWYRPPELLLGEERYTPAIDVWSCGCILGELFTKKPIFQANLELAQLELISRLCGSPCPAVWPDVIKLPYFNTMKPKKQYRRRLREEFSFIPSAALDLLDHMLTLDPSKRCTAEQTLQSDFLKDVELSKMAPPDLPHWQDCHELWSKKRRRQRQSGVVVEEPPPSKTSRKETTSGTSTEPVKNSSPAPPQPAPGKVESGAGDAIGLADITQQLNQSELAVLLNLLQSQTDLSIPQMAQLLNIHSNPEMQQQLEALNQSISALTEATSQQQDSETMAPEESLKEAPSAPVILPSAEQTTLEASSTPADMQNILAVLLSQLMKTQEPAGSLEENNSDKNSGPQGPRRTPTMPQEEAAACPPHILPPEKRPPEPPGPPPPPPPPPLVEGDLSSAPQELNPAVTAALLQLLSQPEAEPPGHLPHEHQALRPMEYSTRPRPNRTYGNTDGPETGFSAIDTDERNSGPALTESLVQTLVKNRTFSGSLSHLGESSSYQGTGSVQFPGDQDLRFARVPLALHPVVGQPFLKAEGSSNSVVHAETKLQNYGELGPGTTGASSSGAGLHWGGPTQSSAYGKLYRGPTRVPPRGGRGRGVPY

SMILES	Kd
CNC(=O)c1ccc(C)c(-n2c(C)cc(OCc3ccc(F)cc3F)c(Br)c2=O)c1 [PH-797804]	> 30 µM (inactive)
CNC(=O)c1cc(Oc2ccc(NC(=O)Nc3ccc(Cl)c(C(F)(F)F)c3)c(F)c2)ccn1 [REGORAFENIB]	> 30 µM (inactive)
CN(C)C(=O)c1cc2cnc(Nc3ccc(N4CCNCC4)cn3)nc2n1C1CCCC1 [RIBOCICLIB]	> 30 µM (inactive)
COc1cc(OC)c(/C=C/S(=O)(=O)Cc2ccc(OC)c(NCC(=O)O)c2)c(OC)c1 [RIGOSERTIB]	> 30 µM (inactive)
CNC(=O)CN1CCC(Oc2cc3c(Nc4cccc(Cl)c4F)ncnc3cc2OC)CC1 [SAPITINIB]	> 30 µM (inactive)
CN1CCC(CNc2ccc3ncc(-c4cccc(OC(F)(F)F)c4)n3n2)CC1 [SGI-1776]	> 30 µM (inactive)
C[C@@H]1CN(Cc2ccc(F)cc2)[C@@H](C)CN1C(=O)c1cc2c(C(=O)C(=O)N(C)C)cn(C)c2cc1Cl [TALMAPIMOD]	> 30 µM (inactive)

These compounds were tested against TRAF2 and NCK-interacting protein kinase (Homo sapiens, UniProt Q9UKE5).
TRAF2 and NCK-interacting protein kinase, sequence (Q9UKE5 whole entry): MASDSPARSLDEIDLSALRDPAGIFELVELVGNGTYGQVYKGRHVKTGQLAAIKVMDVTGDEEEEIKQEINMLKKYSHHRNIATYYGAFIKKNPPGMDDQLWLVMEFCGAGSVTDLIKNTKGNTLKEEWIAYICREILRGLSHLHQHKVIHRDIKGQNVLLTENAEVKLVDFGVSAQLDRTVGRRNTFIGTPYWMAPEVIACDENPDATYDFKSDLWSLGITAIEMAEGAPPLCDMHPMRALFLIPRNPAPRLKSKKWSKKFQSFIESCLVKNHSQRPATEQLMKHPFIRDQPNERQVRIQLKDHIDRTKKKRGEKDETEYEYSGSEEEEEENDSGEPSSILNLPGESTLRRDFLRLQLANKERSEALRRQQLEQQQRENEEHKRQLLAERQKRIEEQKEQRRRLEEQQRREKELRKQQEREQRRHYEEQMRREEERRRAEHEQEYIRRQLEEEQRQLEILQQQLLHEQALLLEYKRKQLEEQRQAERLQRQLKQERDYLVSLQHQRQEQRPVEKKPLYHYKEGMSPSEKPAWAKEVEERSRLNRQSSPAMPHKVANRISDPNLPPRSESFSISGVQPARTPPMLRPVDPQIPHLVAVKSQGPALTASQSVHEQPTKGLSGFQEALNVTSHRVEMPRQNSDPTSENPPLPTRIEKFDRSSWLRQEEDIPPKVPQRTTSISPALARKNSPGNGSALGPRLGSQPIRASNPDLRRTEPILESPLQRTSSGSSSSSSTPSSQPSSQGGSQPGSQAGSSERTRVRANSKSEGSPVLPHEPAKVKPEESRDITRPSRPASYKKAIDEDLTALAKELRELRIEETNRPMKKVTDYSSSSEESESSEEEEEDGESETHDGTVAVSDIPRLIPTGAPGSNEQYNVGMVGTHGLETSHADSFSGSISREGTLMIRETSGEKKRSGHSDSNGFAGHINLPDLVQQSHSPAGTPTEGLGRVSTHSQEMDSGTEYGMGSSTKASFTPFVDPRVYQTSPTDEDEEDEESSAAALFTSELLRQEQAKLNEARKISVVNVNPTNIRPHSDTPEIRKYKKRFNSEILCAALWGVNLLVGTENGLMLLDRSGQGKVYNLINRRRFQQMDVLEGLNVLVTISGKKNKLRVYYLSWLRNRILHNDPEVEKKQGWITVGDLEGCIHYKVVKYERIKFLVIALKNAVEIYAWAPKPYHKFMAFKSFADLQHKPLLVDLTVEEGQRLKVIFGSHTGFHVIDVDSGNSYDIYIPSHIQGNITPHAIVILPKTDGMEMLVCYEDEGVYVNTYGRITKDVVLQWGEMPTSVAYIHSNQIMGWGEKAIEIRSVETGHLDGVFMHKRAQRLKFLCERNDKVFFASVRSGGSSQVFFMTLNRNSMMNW

SMILES	Kd
CNC(=O)c1ccc(C)c(-n2c(C)cc(OCc3ccc(F)cc3F)c(Br)c2=O)c1 [PH-797804]	> 30 µM (inactive)
CNC(=O)c1cc(Oc2ccc(NC(=O)Nc3ccc(Cl)c(C(F)(F)F)c3)c(F)c2)ccn1 [REGORAFENIB]	> 30 µM (inactive)
CN(C)C(=O)c1cc2cnc(Nc3ccc(N4CCNCC4)cn3)nc2n1C1CCCC1 [RIBOCICLIB]	> 30 µM (inactive)
COc1cc(OC)c(/C=C/S(=O)(=O)Cc2ccc(OC)c(NCC(=O)O)c2)c(OC)c1 [RIGOSERTIB]	> 30 µM (inactive)
CNC(=O)CN1CCC(Oc2cc3c(Nc4cccc(Cl)c4F)ncnc3cc2OC)CC1 [SAPITINIB]	> 30 µM (inactive)
CN1CCC(CNc2ccc3ncc(-c4cccc(OC(F)(F)F)c4)n3n2)CC1 [SGI-1776]	> 30 µM (inactive)
C[C@@H]1CN(Cc2ccc(F)cc2)[C@@H](C)CN1C(=O)c1cc2c(C(=O)C(=O)N(C)C)cn(C)c2cc1Cl [TALMAPIMOD]	> 30 µM (inactive)

The compounds below were run against T1, Mitogen-activated protein kinase kinase kinase 3 (Homo sapiens, UniProt Q99759).
T1 sequence (Q99759 whole entry): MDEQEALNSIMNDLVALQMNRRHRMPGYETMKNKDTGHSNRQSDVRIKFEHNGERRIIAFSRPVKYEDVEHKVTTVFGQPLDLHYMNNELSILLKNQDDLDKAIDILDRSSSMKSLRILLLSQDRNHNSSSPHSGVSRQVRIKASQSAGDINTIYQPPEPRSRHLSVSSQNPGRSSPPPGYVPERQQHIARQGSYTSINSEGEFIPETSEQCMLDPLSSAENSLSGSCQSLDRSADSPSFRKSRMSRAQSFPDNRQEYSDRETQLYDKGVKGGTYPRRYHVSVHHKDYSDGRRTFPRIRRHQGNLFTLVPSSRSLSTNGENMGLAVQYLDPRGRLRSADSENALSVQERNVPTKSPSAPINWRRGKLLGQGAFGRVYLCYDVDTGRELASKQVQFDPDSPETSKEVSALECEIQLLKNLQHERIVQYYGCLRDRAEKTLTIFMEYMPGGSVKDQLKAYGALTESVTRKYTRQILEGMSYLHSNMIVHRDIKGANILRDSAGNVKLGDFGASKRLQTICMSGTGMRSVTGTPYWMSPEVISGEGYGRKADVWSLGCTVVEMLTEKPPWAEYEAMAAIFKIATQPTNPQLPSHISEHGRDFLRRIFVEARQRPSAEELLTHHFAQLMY

SMILES	Kd
CNC(=O)c1ccc(C)c(-n2c(C)cc(OCc3ccc(F)cc3F)c(Br)c2=O)c1 [PH-797804]	> 30 µM (inactive)
CNC(=O)c1cc(Oc2ccc(NC(=O)Nc3ccc(Cl)c(C(F)(F)F)c3)c(F)c2)ccn1 [REGORAFENIB]	> 30 µM (inactive)
CN(C)C(=O)c1cc2cnc(Nc3ccc(N4CCNCC4)cn3)nc2n1C1CCCC1 [RIBOCICLIB]	> 30 µM (inactive)
COc1cc(OC)c(/C=C/S(=O)(=O)Cc2ccc(OC)c(NCC(=O)O)c2)c(OC)c1 [RIGOSERTIB]	> 30 µM (inactive)
CNC(=O)CN1CCC(Oc2cc3c(Nc4cccc(Cl)c4F)ncnc3cc2OC)CC1 [SAPITINIB]	> 30 µM (inactive)
CN1CCC(CNc2ccc3ncc(-c4cccc(OC(F)(F)F)c4)n3n2)CC1 [SGI-1776]	> 30 µM (inactive)
C[C@@H]1CN(Cc2ccc(F)cc2)[C@@H](C)CN1C(=O)c1cc2c(C(=O)C(=O)N(C)C)cn(C)c2cc1Cl [TALMAPIMOD]	> 30 µM (inactive)

What follows are compounds tested against GTP-binding nuclear protein Ran (Homo sapiens, UniProt P62826).

SMILES	Kd
CNC(=O)c1ccc(C)c(-n2c(C)cc(OCc3ccc(F)cc3F)c(Br)c2=O)c1 [PH-797804]	> 30 µM (inactive)
CNC(=O)c1cc(Oc2ccc(NC(=O)Nc3ccc(Cl)c(C(F)(F)F)c3)c(F)c2)ccn1 [REGORAFENIB]	> 30 µM (inactive)
CN(C)C(=O)c1cc2cnc(Nc3ccc(N4CCNCC4)cn3)nc2n1C1CCCC1 [RIBOCICLIB]	> 30 µM (inactive)
COc1cc(OC)c(/C=C/S(=O)(=O)Cc2ccc(OC)c(NCC(=O)O)c2)c(OC)c1 [RIGOSERTIB]	> 30 µM (inactive)
CNC(=O)CN1CCC(Oc2cc3c(Nc4cccc(Cl)c4F)ncnc3cc2OC)CC1 [SAPITINIB]	> 30 µM (inactive)
CN1CCC(CNc2ccc3ncc(-c4cccc(OC(F)(F)F)c4)n3n2)CC1 [SGI-1776]	> 30 µM (inactive)
C[C@@H]1CN(Cc2ccc(F)cc2)[C@@H](C)CN1C(=O)c1cc2c(C(=O)C(=O)N(C)C)cn(C)c2cc1Cl [TALMAPIMOD]	> 30 µM (inactive)

Each compound was assayed against T2, Scaffold protein ILK (Homo sapiens, UniProt Q13418).
T2 sequence (Q13418 whole entry): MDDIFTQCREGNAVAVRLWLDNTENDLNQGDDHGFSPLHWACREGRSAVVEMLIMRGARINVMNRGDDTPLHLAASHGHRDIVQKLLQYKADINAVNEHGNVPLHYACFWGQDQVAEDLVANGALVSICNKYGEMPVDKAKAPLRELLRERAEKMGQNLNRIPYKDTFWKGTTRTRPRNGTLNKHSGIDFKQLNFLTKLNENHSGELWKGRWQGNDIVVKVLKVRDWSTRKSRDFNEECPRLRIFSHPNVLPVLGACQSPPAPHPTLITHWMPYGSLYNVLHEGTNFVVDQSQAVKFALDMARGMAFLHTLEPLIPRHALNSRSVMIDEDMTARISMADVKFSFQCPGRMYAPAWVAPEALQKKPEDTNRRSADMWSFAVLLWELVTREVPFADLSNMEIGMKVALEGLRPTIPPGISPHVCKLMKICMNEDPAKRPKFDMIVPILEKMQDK

SMILES	Kd
CNC(=O)c1ccc(C)c(-n2c(C)cc(OCc3ccc(F)cc3F)c(Br)c2=O)c1 [PH-797804]	> 30 µM (inactive)
CNC(=O)c1cc(Oc2ccc(NC(=O)Nc3ccc(Cl)c(C(F)(F)F)c3)c(F)c2)ccn1 [REGORAFENIB]	> 30 µM (inactive)
CN(C)C(=O)c1cc2cnc(Nc3ccc(N4CCNCC4)cn3)nc2n1C1CCCC1 [RIBOCICLIB]	> 30 µM (inactive)
COc1cc(OC)c(/C=C/S(=O)(=O)Cc2ccc(OC)c(NCC(=O)O)c2)c(OC)c1 [RIGOSERTIB]	> 30 µM (inactive)
CNC(=O)CN1CCC(Oc2cc3c(Nc4cccc(Cl)c4F)ncnc3cc2OC)CC1 [SAPITINIB]	> 30 µM (inactive)
CN1CCC(CNc2ccc3ncc(-c4cccc(OC(F)(F)F)c4)n3n2)CC1 [SGI-1776]	> 30 µM (inactive)
C[C@@H]1CN(Cc2ccc(F)cc2)[C@@H](C)CN1C(=O)c1cc2c(C(=O)C(=O)N(C)C)cn(C)c2cc1Cl [TALMAPIMOD]	> 30 µM (inactive)

These compounds were tested against T3, Ephrin type-B receptor 6 (Homo sapiens, UniProt O15197).
T3 sequence (O15197 whole entry): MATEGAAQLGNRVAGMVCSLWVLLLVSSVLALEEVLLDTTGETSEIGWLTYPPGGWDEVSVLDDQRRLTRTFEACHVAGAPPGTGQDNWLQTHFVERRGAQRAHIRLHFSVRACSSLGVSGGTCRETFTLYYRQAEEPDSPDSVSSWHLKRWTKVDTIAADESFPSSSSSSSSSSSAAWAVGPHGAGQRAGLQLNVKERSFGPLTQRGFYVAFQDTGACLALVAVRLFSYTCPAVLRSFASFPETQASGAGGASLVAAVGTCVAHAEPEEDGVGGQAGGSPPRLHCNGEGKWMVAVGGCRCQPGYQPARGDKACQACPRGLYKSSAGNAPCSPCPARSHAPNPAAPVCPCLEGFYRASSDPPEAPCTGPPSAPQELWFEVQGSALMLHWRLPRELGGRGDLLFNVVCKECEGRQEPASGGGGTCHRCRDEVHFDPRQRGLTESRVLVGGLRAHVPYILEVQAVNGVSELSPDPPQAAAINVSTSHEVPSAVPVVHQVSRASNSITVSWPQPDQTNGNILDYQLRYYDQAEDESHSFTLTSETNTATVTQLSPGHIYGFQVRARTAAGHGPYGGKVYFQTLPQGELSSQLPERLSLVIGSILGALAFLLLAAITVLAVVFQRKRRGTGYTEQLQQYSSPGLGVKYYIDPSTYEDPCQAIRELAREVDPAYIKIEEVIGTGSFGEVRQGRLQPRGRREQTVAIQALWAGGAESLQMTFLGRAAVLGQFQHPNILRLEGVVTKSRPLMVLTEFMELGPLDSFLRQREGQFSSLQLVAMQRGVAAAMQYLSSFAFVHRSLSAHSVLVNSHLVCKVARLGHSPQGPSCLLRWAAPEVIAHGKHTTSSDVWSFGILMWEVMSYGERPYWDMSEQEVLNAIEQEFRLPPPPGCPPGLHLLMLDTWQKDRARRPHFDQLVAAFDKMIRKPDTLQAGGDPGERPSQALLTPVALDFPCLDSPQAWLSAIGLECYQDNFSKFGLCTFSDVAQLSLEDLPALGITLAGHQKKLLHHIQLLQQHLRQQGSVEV

SMILES	Kd
CNC(=O)c1ccc(C)c(-n2c(C)cc(OCc3ccc(F)cc3F)c(Br)c2=O)c1 [PH-797804]	> 30 µM (inactive)
CNC(=O)c1cc(Oc2ccc(NC(=O)Nc3ccc(Cl)c(C(F)(F)F)c3)c(F)c2)ccn1 [REGORAFENIB]	> 30 µM (inactive)
CN(C)C(=O)c1cc2cnc(Nc3ccc(N4CCNCC4)cn3)nc2n1C1CCCC1 [RIBOCICLIB]	> 30 µM (inactive)
COc1cc(OC)c(/C=C/S(=O)(=O)Cc2ccc(OC)c(NCC(=O)O)c2)c(OC)c1 [RIGOSERTIB]	> 30 µM (inactive)
CNC(=O)CN1CCC(Oc2cc3c(Nc4cccc(Cl)c4F)ncnc3cc2OC)CC1 [SAPITINIB]	> 30 µM (inactive)
CN1CCC(CNc2ccc3ncc(-c4cccc(OC(F)(F)F)c4)n3n2)CC1 [SGI-1776]	> 30 µM (inactive)
C[C@@H]1CN(Cc2ccc(F)cc2)[C@@H](C)CN1C(=O)c1cc2c(C(=O)C(=O)N(C)C)cn(C)c2cc1Cl [TALMAPIMOD]	> 30 µM (inactive)

From ChEMBL document CHEMBL3991601, “The target landscape of clinical kinase drugs” (Science, 2017)
